Biological target: tau (Homo sapiens, UniProt P10636)
Experiment: MCE Phenols Library screening, tau biosensor cell seeding assay (AvZ)
Format: cell-based
Details: for Z repl 1 / Z Repl 2: Z score; for Z repl 1 / raw data 1: replicate 1; for Z Repl 2 / raw data 2: replicate 2; for AvZ (average z score of seeding, SDs from the mean level of seeding): 10 μM phenol in cell cultures, AD brain homogenate preincubated 16 hours, two biological replicates, positive = catalyzes seeding, negative = inhibits
[1] = average Z score of the two replicates, tau seeding
[2] = average Z score of two replicates, Phenols Library screen
[3] = average Z score of the two replicates, MCE Phenols Library screen
[4] = average puncta of the two replicates

Chain of tau (P10636 623-695 limits assumed): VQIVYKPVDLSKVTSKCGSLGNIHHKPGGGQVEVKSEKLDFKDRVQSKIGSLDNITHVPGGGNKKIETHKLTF

| Compound | Z repl 1 | Z Repl 2 | av Z [1] | av puncta (average of raw data 1 and 2) | raw data 1 (puncta) | raw data 2 (puncta) | av Z [2] | av Z [3] | av puncta [4] | AvZ (average z score of seeding, SDs from the mean level of seeding) | raw data 1 (raw puncta) | raw data 2 (raw puncta) |
| --- | --- | --- | --- | --- | --- | --- | --- | --- | --- | --- | --- | --- |
| OC[C@H]1O[C@@H](Oc2cc(O)cc(/C=C/c3ccc(O)cc3)c2)[C@H](O)[C@@H](O)[C@@H]1O (mixture of isomers) [(E/Z)-Polydatin] | 0.505 | -0.119 | 0.193 | 21956.3 | 32412.5 | 11500.1 | – | – | – | – | – | – |
| O=C(CCCCCCCCc1ccc(O)c(O)c1)c1c(O)cccc1O [Malabaricone C] | -0.224 | 0.189 | – | 19220 | 23659 | 14781.1 | -0.018 | – | – | – | – | – |
| Gigantol | -0.874 | -0.481 | – | – | 15857.3 | 7628.39 | – | -0.677 | – | – | – | – |
| CC(C)=CCc1cc(C(=O)/C=C/c2ccc(O)cc2)c(O)cc1O [Bavachalcone] | -0.876 | -0.134 | – | – | 15835.9 | 11333.2 | – | -0.505 | 13584.6 | – | – | – |
| COc1ccc(C(C)=O)c(O)c1 [Paeonol] | 0.101 | 0.444 | – | 22534.1 | 27565 | 17503.1 | – | – | – | 0.272 | – | – |
| O=C1c2cc(CO)cc(O)c2C(=O)c2c(O[C@@H]3O[C@H](CO)[C@@H](O)[C@H](O)[C@H]3O)cccc21 [Aloe-emodin-8-O-?-D-glucopyranoside] | -0.712 | -0.064 | – | – | – | – | – | -0.388 | 14937.3 | – | 17796.3 | 12078.3 |
| O=c1cc(-c2ccc(O)cc2)oc2cccc(O)c12 [4',5-Dihydroxyflavone] | 0.443 | 0.397 | 0.42 | 24336.3 | 31664.4 | 17008.3 | – | – | – | – | – | – |
| O=C1c2ccccc2C(=O)c2c(O)ccc(O)c21 [Quinizarin] | -1.021 | -0.252 | – | – | 14091.5 | 10071.4 | – | -0.637 | 12081.4 | – | – | – |
| OC[C@H]1O[C@@H](Oc2cc3c(O)cc(O)cc3[o+]c2-c2ccc(O)c(O)c2)[C@H](O)[C@@H](O)[C@H]1O.[Cl-] [Cyanidin-3-O-galactoside (chloride)] | -1.814 | -0.88 | – | 3972.36 | 4573.89 | 3370.84 | – | -1.347 | – | – | – | – |
| COc1cc(C=O)cc(OC)c1O [Syringaldehyde] | 0.142 | -0.778 | – | – | – | – | – | – | 16255.1 | -0.318 | 28055.2 | 4454.92 |
| COc1ccc(C=O)cc1O [Isovanillin] | -0.326 | -0.711 | – | – | 22438.6 | 5167.88 | – | – | 13803.3 | -0.519 | – | – |
| COc1cc(O)c2c(c1)O[C@H](c1cc(O)cc(O)c1)CC2=O [Blumeatin] | -0.753 | -0.754 | – | – | 17305.9 | 4717.73 | – | -0.753 | 11011.8 | – | – | – |
| COc1cc2c(=O)c3c(O)c([C@@H]4O[C@H](CO[C@@H]5OC[C@](O)(CO)[C@H]5O)[C@@H](O)[C@H](O)[C@H]4O)c(O)cc3oc2cc1O [Polygalaxanthone III] | -0.439 | 0.604 | – | 20150.3 | 21083.3 | 19217.2 | 0.083 | – | – | – | – | – |
| O=C1c2ccccc2C(=O)c2c1cc(O)c(CO)c2O [Lucidin] | 0.331 | -0.667 | – | 17984.5 | 30325.1 | 5643.99 | -0.168 | – | – | – | – | – |
| O=C1c2c(O)cc(O)cc2O[C@H](c2cc(O)c(O)c(O)c2)[C@H]1O [Dihydromyricetin] | -1.346 | -0.885 | – | – | 10190.2 | 3319.03 | – | -1.115 | – | – | – | – |
| C[C@@H]1O[C@@H](O[C@@H]2[C@@H](O)[C@H](O)[C@@H](CO)O[C@H]2c2c(O)cc(O)c3c(=O)cc(-c4ccc(O)cc4)oc23)[C@H](O)[C@H](O)[C@H]1O [Vitexin-2"-O-rhamnoside] | 0.246 | -0.753 | – | – | – | – | – | -0.253 | 17015.1 | – | 29301.6 | 4728.59 |
| O=c1c(O)cc([C@H]2Oc3cc(O)cc(O)c3C[C@H]2O)cc2c([C@H]3Oc4cc(O)cc(O)c4C[C@H]3O)cc(O)c(O)c12 [Theaflavin] | -0.67 | – | – | 9279.59 | 18310.3 | 248.899 | – | -0.921 | – | – | – | – |

| Compound | Z repl 1 | Z Repl 2 | av Z [1] | av puncta (average of raw data 1 and 2) | raw data 1 (puncta) | raw data 2 (puncta) | av Z [2] | av Z [3] | av puncta [4] | AvZ (average z score of seeding, SDs from the mean level of seeding) | raw data 1 (raw puncta) | raw data 2 (raw puncta) |
| --- | --- | --- | --- | --- | --- | --- | --- | --- | --- | --- | --- | --- |
| O=c1ccoc2cc(O)ccc12 [7-Hydroxy-4H-chromen-4-one] | -0.015 | -0.619 | – | – | – | – | – | -0.317 | 16165.1 | – | 26174.7 | 6155.6 |
| COc1c(O[C@@H]2O[C@H](CO)[C@@H](O)[C@H](O)[C@H]2O)cc2oc(-c3ccc(O)cc3)cc(=O)c2c1O [Homoplantaginin] | -0.079 | -0.247 | – | 17765.2 | 25406.2 | 10124.2 | -0.163 | – | – | – | – | – |
| COc1cc(-c2cc(=O)c3c(O)c(OC)c(O)cc3o2)cc(O)c1OC | 0.062 | -0.242 | – | 18635 | 27088.2 | 10181.7 | -0.09 | – | – | – | – | – |
| Oc1ccc2c(c1)OC[C@]1(O)Cc3cc(O)c(O)cc3[C@H]21 [Brazilin] | -0.564 | -0.743 | – | – | 19572.7 | 4834.73 | – | -0.654 | 12203.7 | – | – | – |
| COc1ccc(-c2cc(=O)c3c(O)c(OC)c(O)cc3o2)cc1OC [Eupatilin] | 0.583 | 0.288 | 0.436 | 24597.1 | 33348.4 | 15845.8 | – | – | – | – | – | – |
| COc1cc(CNC(=O)CCCCCC(C)C)ccc1O [Nordihydrocapsaicin] | -0.001 | -0.682 | – | – | – | – | – | – | 15905.5 | -0.342 | 26333.1 | 5477.91 |
| OC[C@]1(O)COc2cc(O)ccc2-c2cc(O)c(O)cc2C1 [Protosappanin B] | -0.022 | -0.809 | – | – | – | – | – | -0.415 | 15106.6 | – | 26082.6 | 4130.62 |
| COc1ccc(-c2cc(=O)c3c(O)cc(OC)cc3o2)cc1 [7,4'-Di-O-methylapigenin] | 0.072 | -0.073 | – | 19598.9 | 27207.6 | 11990.2 | -0.001 | – | – | – | – | – |
| COc1cc(/C=C/C(=O)O[C@H]2[C@H](O)[C@@H](CO)O[C@@]2(CO)O[C@H]2O[C@H](COC(=O)c3ccc(O)cc3)[C@@H](O)[C@H](O)[C@H]2O)cc(OC)c1O [Tenuifoliside B] | -0.53 | -0.01 | – | – | – | – | – | -0.27 | 16324 | – | 19990.7 | 12657.2 |
| Rhodiosin | -1.331 | -1.146 | – | 5448.02 | 10373.6 | 522.423 | – | -1.239 | – | – | – | – |
| O=c1cc(-c2ccccc2)oc2cc(O[C@@H]3O[C@H](CO[C@@H]4O[C@H](CO)[C@@H](O)[C@H](O)[C@H]4O)[C@@H](O)[C@H](O)[C@H]3O)c(O)c(O)c12 [Oroxin B] | -0.164 | -0.982 | – | – | 24381.7 | 2282.35 | – | -0.573 | 13332 | – | – | – |
| O=c1c(O[C@@H]2O[C@H](CO)[C@@H](O)[C@H](O)[C@H]2O)c(-c2ccc(O)cc2)oc2cc(O)cc(O)c12 [Astragalin] | -0.525 | -0.638 | – | – | 20041.3 | 5956.82 | – | -0.581 | 12999 | – | – | – |
| O=c1cc(-c2ccc(O)cc2)oc2cc(O)c(O)c(O)c12 [Scutellarein] | -0.619 | -1.142 | – | 9747.69 | 18922.2 | 573.179 | – | -0.88 | – | – | – | – |
| Punicalin | -2.134 | -1.192 | – | 380.043 | 725.667 | 34.42 | – | -1.663 | – | – | – | – |
| O=c1cc(-c2ccc(O)cc2)oc2cc(O)c([C@@H]3O[C@H](CO)[C@@H](O)[C@H](O)[C@H]3O[C@@H]3O[C@H](CO)[C@@H](O)[C@H](O)[C@H]3O)c(O)c12 [Meloside A] | -1.304 | -0.878 | – | 7038.23 | 10691.8 | 3384.65 | – | -1.091 | – | – | – | – |
| COc1c(O[C@@H]2O[C@H](C(=O)O)[C@@H](O)[C@H](O)[C@H]2O)cc(O)c2c(=O)cc(-c3ccccc3)oc12 [Wogonoside] | -0.039 | -0.756 | – | – | – | – | – | -0.398 | 15284.9 | – | 25879 | 4690.87 |

From PMC11784839, “Monoaminergic neurotransmitters are bimodal effectors of tau aggregation” (Science Advances, 2025)
